Patent EP4635951A1, “SALT-TYPE GLP-1 RECEPTOR AGONIST, CRYSTAL FORM THEREOF, PREPARATION METHOD THEREFOR, PHARMACEUTICAL COMPOSITION THEREOF, AND USE THEREOF” (Hangzhou Zhongmeihuadong Pharmaceutical Co., Ltd., priority 2022, dated 2024)
In brackets after ≈: the same amount, converted by molar mass.

Assays:
Pressure stability = type: physicochemical
High-humidity stability = type: physicochemical
Dynamic solubility = conditions: for Dynamic solubility in water: 37°C±2°C
Equilibrium solubility = type: physicochemical; conditions: 37°C
Description: After 24 hours, samples were taken. The samples were centrifuged for separation, and the supernatant after filtration was used for solubility determination.

[1] = Water activity stability of crystal form; type: physicochemical
[2] = Suspension competition tests between Crystal Form A and Crystal Form P; type: physicochemical; conditions: room temperature and 50°C
Description: The suspensions of Compound Z that had been equilibrated for 2 hours under the corresponding temperature and solvent conditions were filtered to obtain saturated solutions of Compound Z under different temperature and solvent conditions, and then solid mixtures of Crystal Forms A and P of Compound Z were added. After the suspension competition was carried out for 1 day, the solids were separated for XRPD characterization.

[3] = High-temperature stability test; type: physicochemical
Hygroscopicity by DVS = type: physicochemical; conditions: 25°C, 80%RH
[4] = Solid-state stability, long-term and accelerated conditions; type: physicochemical; conditions: for Purity / purity decrease: 10 days
Description: The free Compound I was in a crystalline form, and had the XRPD pattern indicated by the arrow in Figure 50.

Human GLP-1R = target: T1, Human GLP-1R (Homo sapiens, UniProt P43220); test: GLP-1R agonistic activity, HTRF cAMP assay in 293A GFP-GLP-1R cells; type: cell-based; conditions: result in words
T1 construct: expressed in transfected cells; host or cells: 293A cells stably expressing GLP-1R-GFP
T1 sequence (P43220 24-463): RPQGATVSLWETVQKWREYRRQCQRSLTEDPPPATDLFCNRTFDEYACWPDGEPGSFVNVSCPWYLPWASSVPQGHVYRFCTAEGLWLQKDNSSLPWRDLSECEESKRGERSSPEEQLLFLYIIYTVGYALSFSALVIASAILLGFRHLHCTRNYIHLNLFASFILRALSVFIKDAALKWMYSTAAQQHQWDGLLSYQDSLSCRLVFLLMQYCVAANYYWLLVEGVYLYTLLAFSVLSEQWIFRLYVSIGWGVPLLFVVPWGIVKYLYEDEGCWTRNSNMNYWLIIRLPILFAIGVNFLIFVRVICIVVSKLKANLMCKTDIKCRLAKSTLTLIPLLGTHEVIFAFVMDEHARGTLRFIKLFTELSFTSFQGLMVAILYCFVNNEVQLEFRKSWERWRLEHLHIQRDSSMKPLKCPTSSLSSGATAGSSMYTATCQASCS
Description: The method was a competitive immunoassay.

[5] = FaSSGF, 37 °C, fassgf or other biorelevant, thermodynamic from solid
[6] = fassif, 37 °C, thermodynamic from solid
[7] = listed as Compound I in the amorphous form

Structure (SMILES): O=C(O)c1ccc2nc(CN3CCC(c4cccc(OCc5ccc(C6COC6)cc5F)n4)CC3)n(C[C@@H]3CCO3)c2c1 [Crystal Form A of Compound Z]
- purity decrease (Pressure stability; 1000 Mpa, 5 minutes): no obvious decrease
- initial purity (Pressure stability; HPLC purity (% area), before pressing): 97.31%
- purity decrease (High-humidity stability; 90%RH, 10 days): no obvious decrease
- initial purity (High-humidity stability; HPLC purity (% area), before high humidity): 97.41%
- Whether the crystal form changed (Dynamic solubility; FaSSGF, 1 h): YES
- XRPD of Residual Solid (Dynamic solubility; FaSSGF, 1 h): Amorphous
- Whether the crystal form changed (Dynamic solubility; FaSSGF, 2 h): YES
- XRPD of Residual Solid (Dynamic solubility; FaSSGF, 2 h): Amorphous
- Whether the crystal form changed (Dynamic solubility; FaSSGF, 4 h): YES
- XRPD of Residual Solid (Dynamic solubility; FaSSGF, 4 h): Crystal Form A of the hydrochloride of Compound I
- Whether the crystal form changed (Dynamic solubility; FaSSGF, 24 h): YES
- XRPD of Residual Solid (Dynamic solubility; FaSSGF, 24 h): Crystal Form A of the hydrochloride of Compound I
- Whether the crystal form changed (Dynamic solubility; FaSSIF, 1 h): YES
- XRPD of Residual Solid (Dynamic solubility; FaSSIF, 1 h): Crystal Form A of Compound I
- Whether the crystal form changed (Dynamic solubility; H2O (water), 2 h): YES
- XRPD of Residual Solid (Dynamic solubility; H2O (water), 2 h): Crystal Form A of Compound I
- Whether the crystal form changed (Dynamic solubility; H2O (water), 4 h): YES
- XRPD of Residual Solid (Dynamic solubility; H2O (water), 4 h): Crystal Form A of Compound I
- Dynamic solubility in water (Dynamic solubility; H2O (water), 4 h, 240 min): 1230 µg/mL
- Whether the crystal form changed (Dynamic solubility; H2O (water), 24 h): YES
- XRPD of Residual Solid (Dynamic solubility; H2O (water), 24 h): Crystal Form A of Compound I
- Dynamic solubility in water (Dynamic solubility; H2O (water), 24 h, 1440 min): 1330 µg/mL
- solubility thermodynamic at 24 h (Equilibrium solubility; FaSSIF (fasted-state simulated intestinal fluid)): 1190 µg/mL (≈ 2030 µM)
- solubility thermodynamic at 24 h (Equilibrium solubility; FeSSIF (fed-state simulated intestinal fluid)): 1170 µg/mL (≈ 1990 µM)
- solubility thermodynamic at 24 h (Equilibrium solubility; H2O (purified water)): 1940 µg/mL (≈ 3310 µM)
- solubility thermodynamic at 24 h (Equilibrium solubility; SGF (simulated gastric fluid)): 1000 µg/mL (≈ 1700 µM)
- water activity aw at which the crystal form is stable [1]: ≤ 0.388
- solubility at 1 h (physchem; [5]): 40 µg/mL (≈ 68.2 µM)
- solubility at 2 h (physchem; [5]): 140 µg/mL (≈ 239 µM)
- solubility at 4 h (physchem; [5]): 120 µg/mL (≈ 205 µM)
- solubility at 2 h (physchem; fassif): 130 µg/mL (≈ 222 µM)
- solubility at 1 h (physchem; [6]): 130 µg/mL (≈ 222 µM)
- solubility at 4 h (physchem; [6]): 110 µg/mL (≈ 188 µM)
- solubility at 24 h (physchem; [6]): 280 µg/mL (≈ 477 µM)
- solubility at 1 h (physchem; water): 5500 µg/mL (≈ 9380 µM)
- solubility at 2 h (physchem; water): 1380 µg/mL (≈ 2350 µM)
- solubility (physchem; water, 37 °C, fassgf or other biorelevant, thermodynamic from solid): 60 µg/mL (≈ 102 µM)
- thermodynamic stability relative to Crystal Form P [2]: thermodynamically more stable
- purity decrease after 1 day ([3]; 60°C, 1 day): no obvious decrease
- purity after 1 day ([3]; HPLC purity (% area), 60°C, 1 day): 97.34%
- initial purity ([3]; HPLC purity (% area), before 60°C): 97.41%
- hygroscopicity class (Hygroscopicity by DVS): slightly hygroscopic (a weight gain of 0.2%-2% indicates slightly hygroscopic)
- weight gain (water absorbed) (Hygroscopicity by DVS): 1.696%
- Purity ([4]; 25°C/60%RH): 97.38 % Area
- Purity ([4]; 40°C/75%RH): 97.35 % Area
- initial purity ([4]; HPLC, before storage): 97.41 % Area
- purity decrease ([4]; accelerated conditions (40°C/75%RH)): no obvious decrease
- purity decrease ([4]; long-term conditions (25°C/60%RH)): no obvious decrease

Structure (SMILES): O=C(O)c1ccc2nc(CN3CCC(c4cccc(OCc5ccc(C6COC6)cc5F)n4)CC3)n(C[C@@H]3CCO3)c2c1 [Amorphous form of Compound I]
- solubility thermodynamic at 24 h (Equilibrium solubility; fassif, FaSSIF (fasted-state simulated intestinal fluid)): 150 µg/mL (≈ 256 µM)
- solubility thermodynamic at 24 h (Equilibrium solubility; fessif, FeSSIF (fed-state simulated intestinal fluid)): 800 µg/mL (≈ 1360 µM)
- solubility thermodynamic at 24 h (Equilibrium solubility; purified water, H2O (purified water)): 430 µg/mL (≈ 733 µM)
- solubility thermodynamic at 24 h (Equilibrium solubility; sgf (simulated gastric fluid)): 410 µg/mL (≈ 699 µM)
- hygroscopicity class (Hygroscopicity by DVS; [7]): hygroscopic (a weight gain of 2%-15% indicates hygroscopic)
- weight gain (water absorbed) (Hygroscopicity by DVS; [7]): 4.029%

Structure (SMILES): O=C(O)c1ccc2nc(CN3CCC(c4cccc(OCc5ccc(C6COC6)cc5F)n4)CC3)n(C[C@@H]3CCO3)c2c1 [Compound I, (S)-2-((4-(6-((2-fluoro-4-(oxetan-3-yl)benzyl)oxy)pyridin-2-yl)piperidin-1-yl)methyl)-1-(oxetan-2-ylmethyl)-1H-benzo[d]imidazole-6-carboxylic acid]
- XRPD of Residual Solid (Dynamic solubility; FaSSGF, 1 h, listed as Free Compound I): Crystal Form A of the hydrochloride of Compound I
- XRPD of Residual Solid (Dynamic solubility; FaSSGF, 2 h, listed as Free Compound I): Crystal Form A of the hydrochloride of Compound I
- Whether the crystal form changed (Dynamic solubility; FaSSIF, 2 h): YES
- XRPD of Residual Solid (Dynamic solubility; FaSSIF, 2 h): Crystal Form A of Compound I
- Dynamic solubility in water (Dynamic solubility; FaSSIF, 2 h, listed as Free Compound I): 70 µg/mL
- Whether the crystal form changed (Dynamic solubility; FaSSIF, 4 h): YES
- XRPD of Residual Solid (Dynamic solubility; FaSSIF, 4 h): Crystal Form A of Compound I
- Whether the crystal form changed (Dynamic solubility; FaSSIF, 24 h): YES
- XRPD of Residual Solid (Dynamic solubility; FaSSIF, 24 h): Crystal Form A of Compound I
- Whether the crystal form changed (Dynamic solubility; H2O (water), 1 h): YES
- XRPD of Residual Solid (Dynamic solubility; H2O (water), 1 h): Crystal Form A of Compound I
- Dynamic solubility in water (Dynamic solubility; H2O (water), 4 h, listed as Free Compound I): 30 µg/mL
- Dynamic solubility in water (Dynamic solubility; H2O (water), 24 h, listed as Free Compound I): 30 µg/mL
- solubility at 1 h (physchem; [5]): 100 µg/mL (≈ 170 µM)
- solubility at 2 h (physchem; [5]): 90 µg/mL (≈ 153 µM)
- solubility at 4 h (physchem; [5]): 110 µg/mL (≈ 188 µM)
- solubility at 24 h (physchem; [5]): 100 µg/mL (≈ 170 µM)
- solubility at 1 h (physchem; [6]): 40 µg/mL (≈ 68.2 µM)
- solubility at 4 h (physchem; [6]): 120 µg/mL (≈ 205 µM)
- solubility at 24 h (physchem; [6]): 210 µg/mL (≈ 358 µM)
- agonistic effect on GLP-1R (Human GLP-1R): strong agonistic effect
